Test results: patent US9693556B2, “Herbicidal pyridazinone derivatives” (SYNGENTA LIMITED, priority 2011, dated 2017)

Assays:
Format in all cases: in vivo
[1] = test system: Alopecurus myosuroides (ALOMY); assay: Pre-emergence herbicidal glasshouse test on Alopecurus myosuroides; conditions: pre-emergence, 1000 g/h, evaluated after 13 days; for herbicidal damage, PRE Application ALOMY: five point scale
Method in brief: (§1)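 Application rate 1000 g/h, formulated in acetone/water (50:50) with 0.5% Tween 20 and sprayed onto pots sown 1 day (pre-emergence) or 8 days (post-emergence) earlier. Evaluation at 13 days rated damage from 1 (0-19%) to 5 (80-100%).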

Setaria faberi (SETFA) [2] = assay: Pre-emergence herbicidal glasshouse test on Setaria faberi; conditions: pre-emergence, 1000 g/h, evaluated after 13 days; for herbicidal damage, PRE Application SETFA: five point scale
Method in brief: as §1

[3] = test system: Echinochloa crus-galli (ECHCG); assay: Pre-emergence herbicidal glasshouse test on Echinochloa crus-galli; conditions: pre-emergence, 1000 g/h, evaluated after 13 days; for herbicidal damage, PRE Application ECHCG: five point scale
Method in brief: as §1

Solanum nigrum (SOLNI) [4] = assay: Pre-emergence herbicidal glasshouse test on Solanum nigrum; conditions: pre-emergence, 1000 g/h, evaluated after 13 days; for herbicidal damage, PRE Application SOLNI: five point scale
Method in brief: as §1

[5] = test system: Amaranthus retoflexus (AMARE); assay: Pre-emergence herbicidal glasshouse test on Amaranthus retoflexus; conditions: pre-emergence, 1000 g/h, evaluated after 13 days; for herbicidal damage, PRE Application AMARE: five point scale
Method in brief: as §1

[6] = test system: Ipomoea hederacea (IPOHE); assay: Pre-emergence herbicidal glasshouse test on Ipomoea hederacea; conditions: pre-emergence, 1000 g/h, evaluated after 13 days; for herbicidal damage, PRE Application IPOHE: five point scale
Method in brief: as §1

[7] = test system: Alopecurus myosuroides (ALOMY); assay: Post-emergence herbicidal glasshouse test on Alopecurus myosuroides; conditions: post-emergence, 1000 g/h, evaluated after 13 days; for herbicidal damage, POST Application ALOMY: five point scale
Method in brief: as §1

Setaria faberi (SETFA) [8] = assay: Post-emergence herbicidal glasshouse test on Setaria faberi; conditions: post-emergence, 1000 g/h, evaluated after 13 days; for herbicidal damage, POST Application SETFA: five point scale
Method in brief: as §1

[9] = test system: Echinochloa crus-galli (ECHCG); assay: Post-emergence herbicidal glasshouse test on Echinochloa crus-galli; conditions: post-emergence, 1000 g/h, evaluated after 13 days; for herbicidal damage, POST Application ECHCG: five point scale
Method in brief: as §1

Solanum nigrum (SOLNI) [10] = assay: Post-emergence herbicidal glasshouse test on Solanum nigrum; conditions: post-emergence, 1000 g/h, evaluated after 13 days; for herbicidal damage, POST Application SOLNI: five point scale
Method in brief: as §1

[11] = test system: Amaranthus retoflexus (AMARE); assay: Post-emergence herbicidal glasshouse test on Amaranthus retoflexus; conditions: post-emergence, 1000 g/h, evaluated after 13 days; for herbicidal damage, POST Application AMARE: five point scale
Method in brief: as §1

[12] = test system: Ipomoea hederacea (IPOHE); assay: Post-emergence herbicidal glasshouse test on Ipomoea hederacea; conditions: post-emergence, 1000 g/h, evaluated after 13 days; for herbicidal damage, POST Application IPOHE: five point scale
Method in brief: as §1

Row | Structure (SMILES) | PRE Application ALOMY herbicidal damage (five point scale) [1] | PRE Application SETFA herbicidal damage (five point scale) (Setaria faberi (SETFA) [2]) | PRE Application ECHCG herbicidal damage (five point scale) [3] | PRE Application SOLNI herbicidal damage (five point scale) (Solanum nigrum (SOLNI) [4]) | PRE Application AMARE herbicidal damage (five point scale) [5] | PRE Application IPOHE herbicidal damage (five point scale) [6] | POST Application ALOMY herbicidal damage (five point scale) [7] | POST Application SETFA herbicidal damage (five point scale) (Setaria faberi (SETFA) [8]) | POST Application ECHCG herbicidal damage (five point scale) [9] | POST Application SOLNI herbicidal damage (five point scale) (Solanum nigrum (SOLNI) [10]) | POST Application AMARE herbicidal damage (five point scale) [11] | POST Application IPOHE herbicidal damage (five point scale) [12] | other results
1 | CN(C)c1c(Cl)ccc(-c2cnn(C)c(=O)c2O)c1F [Compound 1.064] | 1 (1=0-19% damage) | 1 (1=0-19% damage) | 1 (1=0-19% damage) | 1 (1=0-19% damage) | 1 (1=0-19% damage) | 1 (1=0-19% damage) | 1 (1=0-19% damage) | 1 (1=0-19% damage) | 1 (1=0-19% damage) | 5 (5=80-100% damage) | 5 (5=80-100% damage) | 4 (4=60-79% damage) | 
2 | CCS(=O)(=O)c1nn(C)c(=O)c(O)c1-c1ccc(S(C)(=O)=O)c(C2=NOCC2)c1C [Compound 2.021] | 1 (1=0-19% damage) | 1 (1=0-19% damage) | 1 (1=0-19% damage) | 1 (1=0-19% damage) | 5 (5=80-100% damage) | 1 (1=0-19% damage) | 1 (1=0-19% damage) | 2 (2=20-39% damage) | 5 (5=80-100% damage) | 5 (5=80-100% damage) | 5 (5=80-100% damage) | 5 (5=80-100% damage) | 
3 | CS(=O)(=O)c1ccc(-c2cn[nH]c(=O)c2O)c(Cl)c1C1=NOCC1 [Compound 2.055] | 2 (2=20-39% damage) | 1 (1=0-19% damage) | 2 (2=20-39% damage) | 2 (2=20-39% damage) | 4 (4=60-79% damage) | 1 (1=0-19% damage) | 3 (3=40-59% damage) | 5 (5=80-100% damage) | 5 (5=80-100% damage) | 5 (5=80-100% damage) | 5 (5=80-100% damage) | 3 (3=40-59% damage) | 
4 | COC(=O)Oc1c(-c2ccc(C(F)(F)F)cc2S(C)(=O)=O)cnn(C)c1=O [Compound 3.003, Methyl [2-methyl-5-[2-methylsulfonyl-4-(trifluoromethyl)phenyl]-3-oxo-pyridazin-4-yl]carbonate] | 5 (5=80-100% damage) | 5 (5=80-100% damage) | 5 (5=80-100% damage) | 5 (5=80-100% damage) | 5 (5=80-100% damage) | 5 (5=80-100% damage) | 5 (5=80-100% damage) | 5 (5=80-100% damage) | 5 (5=80-100% damage) | 5 (5=80-100% damage) | 5 (5=80-100% damage) | 5 (5=80-100% damage) | 
5 | CS(=O)(=O)c1ccc(-c2cnn(C3CC3)c(=O)c2O)c(Cl)c1C1=NOCC1 [Compound 1.158] |  |  |  |  |  |  |  |  |  |  |  |  | herbicidal damage, PRE Application ALOMY [1]: 3 (3=40-59% damage); herbicidal damage, PRE Application SETFA (Setaria faberi (SETFA) [2]): 3 (3=40-59% damage); herbicidal damage, PRE Application ECHCG [3]: 5 (5=80-100% damage); herbicidal damage, PRE Application SOLNI (Solanum nigrum (SOLNI) [4]): 4 (4=60-79% damage); herbicidal damage, PRE Application AMARE [5]: 5 (5=80-100% damage); herbicidal damage, PRE Application IPOHE [6]: 3 (3=40-59% damage); herbicidal damage, POST Application ALOMY [7]: 5 (5=80-100% damage); herbicidal damage, POST Application SETFA (Setaria faberi (SETFA) [8]): 5 (5=80-100% damage); herbicidal damage, POST Application ECHCG [9]: 5 (5=80-100% damage); herbicidal damage, POST Application SOLNI (Solanum nigrum (SOLNI) [10]): 5 (5=80-100% damage); herbicidal damage, POST Application AMARE [11]: 5 (5=80-100% damage); herbicidal damage, POST Application IPOHE [12]: 5 (5=80-100% damage)
6 | Cn1ncc(-c2ccc(COCC(F)(F)F)cc2S(C)(=O)=O)c(O)c1=O [Compound 2.053] | 3 (3=40-59% damage) | 2 (2=20-39% damage) | 5 (5=80-100% damage) | 5 (5=80-100% damage) | 5 (5=80-100% damage) | 1 (1=0-19% damage) | 3 (3=40-59% damage) | 2 (2=20-39% damage) | 3 (3=40-59% damage) | 5 (5=80-100% damage) | 5 (5=80-100% damage) | 5 (5=80-100% damage) | 
7 | Cn1ncc(-c2cccn(-c3cccc(F)c3)c2=O)c(O)c1=O [Compound 1.148] | 1 (1=0-19% damage) | 1 (1=0-19% damage) | 1 (1=0-19% damage) | 1 (1=0-19% damage) | 1 (1=0-19% damage) | 2 (2=20-39% damage) | 1 (1=0-19% damage) | 4 (4=60-79% damage) | 2 (2=20-39% damage) | 3 (3=40-59% damage) | 2 (2=20-39% damage) | 3 (3=40-59% damage) | 
8 | Cc1nc2nc(C(F)(F)F)c(-c3cnn(C)c(=O)c3O)cc2cc1F [Compound 1.151] |  |  |  |  |  |  |  |  |  |  |  |  | herbicidal damage, PRE Application ALOMY [1]: 2 (2=20-39% damage); herbicidal damage, PRE Application SETFA (Setaria faberi (SETFA) [2]): 2 (2=20-39% damage); herbicidal damage, PRE Application ECHCG [3]: 5 (5=80-100% damage); herbicidal damage, PRE Application SOLNI (Solanum nigrum (SOLNI) [4]): 4 (4=60-79% damage); herbicidal damage, PRE Application AMARE [5]: 5 (5=80-100% damage); herbicidal damage, PRE Application IPOHE [6]: 5 (5=80-100% damage); herbicidal damage, POST Application ALOMY [7]: 5 (5=80-100% damage); herbicidal damage, POST Application SETFA (Setaria faberi (SETFA) [8]): 5 (5=80-100% damage); herbicidal damage, POST Application ECHCG [9]: 5 (5=80-100% damage); herbicidal damage, POST Application SOLNI (Solanum nigrum (SOLNI) [10]): 5 (5=80-100% damage); herbicidal damage, POST Application AMARE [11]: 5 (5=80-100% damage); herbicidal damage, POST Application IPOHE [12]: 5 (5=80-100% damage)
9 | Cc1cc(Cl)ccc1-c1cnn(C)c(=O)c1O [Compound 1.082] | 1 (1=0-19% damage) | 1 (1=0-19% damage) | 1 (1=0-19% damage) | 1 (1=0-19% damage) | 1 (1=0-19% damage) | 1 (1=0-19% damage) | 1 (1=0-19% damage) | 1 (1=0-19% damage) | 1 (1=0-19% damage) | 4 (4=60-79% damage) | 2 (2=20-39% damage) | 2 (2=20-39% damage) | 
